Patent publication US20240058264A1, “PHARMACEUTICAL FORMULATIONS OF NINTEDANIB FOR INTRAOCULAR USE” (Boehringer Ingelheim International GmbH, priority 2022, published 2024)
In brackets after ≈: the same amount, converted by molar mass.

Assay: Water solubility
Format: physicochemical

| solubility in water | solubility [µg/mL] | SMILES |
| --- | --- | --- |
| very poor |  | COC(=O)c1ccc2c(c1)NC(=O)/C2=C(\Nc1ccc(N(C)C(=O)CN2CCN(C)CC2)cc1)c1ccccc1 [free base of nintedanib, 3-Z-[1-(4-(N-((4-methyl-piperazin-1-yl)-methylcarbonyl)-N-methyl-amino)-anilino)-1-phenyl-methylene]-6-methoxycarbonyl-2-indolinone] |
|  | 2800 (≈ 5.19 mM) | COC(=O)c1ccc2c(c1)NC(=O)/C2=C(\Nc1ccc(N(C)C(=O)CN2CCN(C)CC2)cc1)c1ccccc1 [nintedanib esylate] |
